# Target: T1, Bsu DNA polymerase large fragment / primed template nucleic acid (Bacillus subtilis, UniProt O34996)
# T1 construct: 350 U/ml Bsu DNA polymerase large fragment
# T1 sequence (O34996 297-880 limits assumed): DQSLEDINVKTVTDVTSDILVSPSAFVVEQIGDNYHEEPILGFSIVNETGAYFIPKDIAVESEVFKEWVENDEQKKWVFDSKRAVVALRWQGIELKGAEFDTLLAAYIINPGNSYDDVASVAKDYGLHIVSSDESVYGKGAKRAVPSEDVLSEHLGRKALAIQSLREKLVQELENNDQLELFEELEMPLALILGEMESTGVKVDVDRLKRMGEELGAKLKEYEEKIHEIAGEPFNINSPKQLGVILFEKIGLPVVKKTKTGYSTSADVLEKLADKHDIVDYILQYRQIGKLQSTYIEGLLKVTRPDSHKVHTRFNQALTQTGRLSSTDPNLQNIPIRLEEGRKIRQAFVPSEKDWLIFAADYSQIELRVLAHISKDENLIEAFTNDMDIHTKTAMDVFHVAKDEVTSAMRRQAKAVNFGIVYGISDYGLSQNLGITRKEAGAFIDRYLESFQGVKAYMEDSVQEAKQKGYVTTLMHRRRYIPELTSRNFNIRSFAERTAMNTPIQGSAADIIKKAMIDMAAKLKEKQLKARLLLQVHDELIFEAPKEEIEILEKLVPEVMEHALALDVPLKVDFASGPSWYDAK
# Assay: Biolayer interferometry of polymerase binding to immobilized primed template with cognate or non-cognate nucleotide, salt titration (Example 19)
# Conditions: for Ternary Complex Signal (Δλ, nm): dCTP (cognate); for Binary Complex Signal (Δλ, nm): dGTP (non-cognate)
# Excerpt: A FORTEBIO® (Menlo Park, Calif.) OCTET® instrument employing biolayer interferometry to measure binding reactions at the surface of a fiber optic tip was used in a multiwell plate format to investigate differential stability of binary and ternary complexes. Template strands biotinylated at their 5′-ends were used to immobilize the primed template nucleic acid onto fiber optic tips functionalized with streptavidin (SA) according to standard procedures. […] Tips were first equilibrated in a Tris-buffered solution containing 30 mM Tris-HCl (pH 8.0), and 0.1 mM EDTA before commencing the cycling protocol. Independent binding reactions for the two test nucleotides (i.e., cognate and non-cognate nucleotides) were carried out in the presence of concentrations of NaCl, KCl, or potassium glutamate that varied from 50 mM to 500 mM. […] In all instances, the reaction mixture used during the examination step contained Tris-HCl (pH 8.0), 0.01% Tween-20, 100 μg/ml BSA, 2 mM NiSO4, 350 U/ml Bsu DNA polymerase large fragment; and one of the nucleotides at a concentration of 100 μM (dCTP was used as a cognate nucleotide, and dGTP was used as a non-cognate nucleotide). Following each examination step, tips were exposed to a buffer containing 30 mM Tris-HCl (pH 8.0), 500 mM KCl, 2 mM EDTA and 0.05% Tween-20 for 20 seconds to strip enzyme complexes from the primed template nucleic acid. The stripping step was followed by a 15 second exposure to examination buffer without enzyme, dNTP or divalent cations to regenerate tips for the next cycle of examination. When using a single contacting step to effect binding of polymerase and nucleotide to the primed template nucleic acid, the binding step was 45 seconds long, with binding interactions being monitored continuously. This was accomplished by contacting the primed template nucleic acid with a single solution that included the polymerase and test nucleotide. Results from interferometry monitoring were analyzed to identify formation of ternary complexes (i.e., identifying cognate nucleotide) or binary complexes (i.e., identifying non-cognate nucleotide).
# [1] = KCl 50 mM + fixed 160 mM potassium glutamate
# [2] = KCl 75 mM + fixed 160 mM potassium glutamate
# [3] = KCl 100 mM + fixed 160 mM potassium glutamate
# [4] = KCl 125 mM + fixed 160 mM potassium glutamate
# [5] = KCl 150 mM + fixed 160 mM potassium glutamate
# [6] = KCl 175 mM + fixed 160 mM potassium glutamate
# [7] = KCl 200 mM + fixed 160 mM potassium glutamate
# [8] = KCl 225 mM + fixed 160 mM potassium glutamate
# [9] = KCl 250 mM + fixed 160 mM potassium glutamate
# [10] = KCl 275 mM + fixed 160 mM potassium glutamate
# [11] = KCl 300 mM + fixed 160 mM potassium glutamate
# [12] = KCl 325 mM + fixed 160 mM potassium glutamate
# [13] = KCl 350 mM + fixed 160 mM potassium glutamate
# [14] = KCl 375 mM + fixed 160 mM potassium glutamate
# [15] = KCl 400 mM + fixed 160 mM potassium glutamate
# [16] = KCl 425 mM + fixed 160 mM potassium glutamate
# [17] = KCl 450 mM + fixed 160 mM potassium glutamate
# [18] = KCl 475 mM + fixed 160 mM potassium glutamate
# [19] = KCl 500 mM + fixed 160 mM potassium glutamate
compound,measurement,setting,value
[Cl-].[K+] [KCl],Fold Enhancement (Ternary/Binary),KCl 50 mM,1.03
same,Fold Enhancement (Ternary/Binary),[1],1.24
same,"Ternary Complex Signal (Δλ, nm)",[1],1.57 nm
same,"Binary Complex Signal (Δλ, nm)",[1],1.27 nm
same,"Ternary Complex Signal (Δλ, nm)",KCl 50 mM,2.98 nm
same,"Binary Complex Signal (Δλ, nm)",KCl 50 mM,2.90 nm
same,Fold Enhancement (Ternary/Binary),KCl 75 mM,0.97
same,Fold Enhancement (Ternary/Binary),[2],1.41
same,"Ternary Complex Signal (Δλ, nm)",[2],1.49 nm
same,"Binary Complex Signal (Δλ, nm)",[2],1.06 nm
same,"Ternary Complex Signal (Δλ, nm)",KCl 75 mM,2.59 nm
same,"Binary Complex Signal (Δλ, nm)",KCl 75 mM,2.68 nm
same,Fold Enhancement (Ternary/Binary),KCl 100 mM,1.00
same,Fold Enhancement (Ternary/Binary),[3],1.71
same,"Ternary Complex Signal (Δλ, nm)",[3],1.52 nm
same,"Binary Complex Signal (Δλ, nm)",[3],0.89 nm
same,"Ternary Complex Signal (Δλ, nm)",KCl 100 mM,2.29 nm
same,"Binary Complex Signal (Δλ, nm)",KCl 100 mM,2.29 nm
same,Fold Enhancement (Ternary/Binary),KCl 125 mM,0.98
same,Fold Enhancement (Ternary/Binary),[4],2.05
same,"Ternary Complex Signal (Δλ, nm)",[4],1.44 nm
same,"Binary Complex Signal (Δλ, nm)",[4],0.70 nm
same,"Ternary Complex Signal (Δλ, nm)",KCl 125 mM,1.93 nm
same,"Binary Complex Signal (Δλ, nm)",KCl 125 mM,1.98 nm
same,Fold Enhancement (Ternary/Binary),KCl 150 mM,1.00
same,Fold Enhancement (Ternary/Binary),[5],2.46
same,"Ternary Complex Signal (Δλ, nm)",[5],1.40 nm
same,"Binary Complex Signal (Δλ, nm)",[5],0.57 nm
same,"Ternary Complex Signal (Δλ, nm)",KCl 150 mM,1.67 nm
same,"Binary Complex Signal (Δλ, nm)",KCl 150 mM,1.67 nm
same,Fold Enhancement (Ternary/Binary),KCl 175 mM,0.99
same,Fold Enhancement (Ternary/Binary),[6],3.31
same,"Ternary Complex Signal (Δλ, nm)",[6],1.30 nm
same,"Binary Complex Signal (Δλ, nm)",[6],0.39 nm
same,"Ternary Complex Signal (Δλ, nm)",KCl 175 mM,1.41 nm
same,"Binary Complex Signal (Δλ, nm)",KCl 175 mM,1.43 nm
same,Fold Enhancement (Ternary/Binary),KCl 200 mM,1.08
same,Fold Enhancement (Ternary/Binary),[7],4.15
same,"Ternary Complex Signal (Δλ, nm)",[7],1.19 nm
same,"Binary Complex Signal (Δλ, nm)",[7],0.29 nm
same,"Ternary Complex Signal (Δλ, nm)",KCl 200 mM,1.30 nm
same,"Binary Complex Signal (Δλ, nm)",KCl 200 mM,1.20 nm
same,Fold Enhancement (Ternary/Binary),KCl 225 mM,1.17
same,Fold Enhancement (Ternary/Binary),[8],5.35
same,"Ternary Complex Signal (Δλ, nm)",[8],1.12 nm
same,"Binary Complex Signal (Δλ, nm)",[8],0.21 nm
same,"Ternary Complex Signal (Δλ, nm)",KCl 225 mM,1.20 nm
same,"Binary Complex Signal (Δλ, nm)",KCl 225 mM,1.03 nm
same,Fold Enhancement (Ternary/Binary),KCl 250 mM,1.35
same,Fold Enhancement (Ternary/Binary),[9],7.02
same,"Ternary Complex Signal (Δλ, nm)",[9],0.98 nm
same,"Binary Complex Signal (Δλ, nm)",[9],0.14 nm
same,"Ternary Complex Signal (Δλ, nm)",KCl 250 mM,1.11 nm
same,"Binary Complex Signal (Δλ, nm)",KCl 250 mM,0.82 nm
same,Fold Enhancement (Ternary/Binary),KCl 275 mM,1.51
same,Fold Enhancement (Ternary/Binary),[10],9.07
same,"Ternary Complex Signal (Δλ, nm)",[10],0.88 nm
same,"Binary Complex Signal (Δλ, nm)",[10],0.10 nm
same,"Ternary Complex Signal (Δλ, nm)",KCl 275 mM,1.02 nm
same,"Binary Complex Signal (Δλ, nm)",KCl 275 mM,0.67 nm
same,Fold Enhancement (Ternary/Binary),KCl 300 mM,2.04
same,Fold Enhancement (Ternary/Binary),[11],8.34
same,"Ternary Complex Signal (Δλ, nm)",[11],0.76 nm
same,"Binary Complex Signal (Δλ, nm)",[11],0.09 nm
same,"Ternary Complex Signal (Δλ, nm)",KCl 300 mM,0.96 nm
same,"Binary Complex Signal (Δλ, nm)",KCl 300 mM,0.47 nm
same,Fold Enhancement (Ternary/Binary),KCl 325 mM,1.97
same,Fold Enhancement (Ternary/Binary),[12],8.97
same,"Ternary Complex Signal (Δλ, nm)",[12],0.65 nm
same,"Binary Complex Signal (Δλ, nm)",[12],0.07 nm
same,"Ternary Complex Signal (Δλ, nm)",KCl 325 mM,0.71 nm
same,"Binary Complex Signal (Δλ, nm)",KCl 325 mM,0.36 nm
same,Fold Enhancement (Ternary/Binary),KCl 350 mM,3.72
same,Fold Enhancement (Ternary/Binary),[13],7.94
same,"Ternary Complex Signal (Δλ, nm)",[13],0.54 nm
same,"Binary Complex Signal (Δλ, nm)",[13],0.07 nm
same,"Ternary Complex Signal (Δλ, nm)",KCl 350 mM,0.64 nm
same,"Binary Complex Signal (Δλ, nm)",KCl 350 mM,0.17 nm
same,Fold Enhancement (Ternary/Binary),KCl 375 mM,3.21
same,Fold Enhancement (Ternary/Binary),[14],12.46
same,"Ternary Complex Signal (Δλ, nm)",[14],0.45 nm
same,"Binary Complex Signal (Δλ, nm)",[14],0.04 nm
same,"Ternary Complex Signal (Δλ, nm)",KCl 375 mM,0.49 nm
same,"Binary Complex Signal (Δλ, nm)",KCl 375 mM,0.15 nm
same,Fold Enhancement (Ternary/Binary),KCl 400 mM,9.48
same,Fold Enhancement (Ternary/Binary),[15],13.75
same,"Ternary Complex Signal (Δλ, nm)",[15],0.37 nm
same,"Binary Complex Signal (Δλ, nm)",[15],0.03 nm
same,"Ternary Complex Signal (Δλ, nm)",KCl 400 mM,0.39 nm
same,"Binary Complex Signal (Δλ, nm)",KCl 400 mM,0.04 nm
same,Fold Enhancement (Ternary/Binary),KCl 425 mM,85.77
same,Fold Enhancement (Ternary/Binary),[16],13.28
same,"Ternary Complex Signal (Δλ, nm)",[16],0.31 nm
same,"Binary Complex Signal (Δλ, nm)",[16],0.02 nm
same,"Ternary Complex Signal (Δλ, nm)",KCl 425 mM,0.28 nm
same,"Binary Complex Signal (Δλ, nm)",KCl 425 mM,0.00 nm
same,Fold Enhancement (Ternary/Binary),KCl 450 mM,16.47
same,Fold Enhancement (Ternary/Binary),[17],7.24
same,"Ternary Complex Signal (Δλ, nm)",[17],0.25 nm
same,"Binary Complex Signal (Δλ, nm)",[17],0.03 nm
same,"Ternary Complex Signal (Δλ, nm)",KCl 450 mM,0.19 nm
same,"Binary Complex Signal (Δλ, nm)",KCl 450 mM,0.01 nm
same,Fold Enhancement (Ternary/Binary),KCl 475 mM,4.89
same,Fold Enhancement (Ternary/Binary),[18],4.54
same,"Ternary Complex Signal (Δλ, nm)",[18],0.22 nm
same,"Binary Complex Signal (Δλ, nm)",[18],0.05 nm
same,"Ternary Complex Signal (Δλ, nm)",KCl 475 mM,0.14 nm
same,"Binary Complex Signal (Δλ, nm)",KCl 475 mM,0.03 nm
same,Fold Enhancement (Ternary/Binary),KCl 500 mM,2.69
same,Fold Enhancement (Ternary/Binary),[19],2.97
same,"Ternary Complex Signal (Δλ, nm)",[19],0.21 nm
same,"Binary Complex Signal (Δλ, nm)",[19],0.07 nm
same,"Ternary Complex Signal (Δλ, nm)",KCl 500 mM,0.09 nm
same,"Binary Complex Signal (Δλ, nm)",KCl 500 mM,0.04 nm
same,salt concentration of maximum signal ratios for ternary over binary complexes,no glutamate salt,about 450 mM
